Reference: patent US20240383869A1, “ARYLACETYL INHIBITORS OF TG2 AND USES THEREOF” (UNIVERSITY OF OTTAWA, priority 2021, published 2024)

Legend:
FXIIIa = biological target: T1, FXIIIa (Homo sapiens, UniProt P00488); test: Fluorescence isopeptidase activity assay (A101 FRET-quenched probe), isozyme selectivity; assay type: biochemical; settings: normalized [I]/α
T1 construct: purchased Zedira
T1 sequence (P00488 39-732 limits assumed): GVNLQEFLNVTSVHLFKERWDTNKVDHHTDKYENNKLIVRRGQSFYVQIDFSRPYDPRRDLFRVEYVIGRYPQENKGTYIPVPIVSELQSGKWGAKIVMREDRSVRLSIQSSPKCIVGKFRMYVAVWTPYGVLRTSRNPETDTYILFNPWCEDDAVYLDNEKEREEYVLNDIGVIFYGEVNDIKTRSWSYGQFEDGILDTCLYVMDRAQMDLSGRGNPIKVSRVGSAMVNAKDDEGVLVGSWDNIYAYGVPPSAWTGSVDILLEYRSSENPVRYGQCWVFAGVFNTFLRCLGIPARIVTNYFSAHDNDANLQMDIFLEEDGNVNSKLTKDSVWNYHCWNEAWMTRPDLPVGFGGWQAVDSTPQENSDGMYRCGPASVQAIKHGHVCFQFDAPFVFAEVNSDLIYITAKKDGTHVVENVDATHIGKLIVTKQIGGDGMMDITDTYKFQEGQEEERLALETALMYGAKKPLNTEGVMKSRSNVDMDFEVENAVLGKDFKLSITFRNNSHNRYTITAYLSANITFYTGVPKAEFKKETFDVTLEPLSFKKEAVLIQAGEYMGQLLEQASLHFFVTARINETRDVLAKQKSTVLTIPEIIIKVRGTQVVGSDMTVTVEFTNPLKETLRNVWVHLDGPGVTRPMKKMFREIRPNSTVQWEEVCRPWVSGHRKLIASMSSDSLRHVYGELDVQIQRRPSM
Protocol: Fluorescence isopeptidase activity assay. The isopeptidase activity of pre-activated TG3a and FXIIIa (purchased from Zedira) was measured via a fluorescence-based assay as described (Kirily, R. et al., “Isopeptidase activity of human transglutaminase 2: disconnection from transamidation and characterization by kinetic parameters.” Amino Acids 2016, 48 (1), 31-40) using the commercially available peptidic FRET quenched probe A101. Briefly, the final concentration in the reaction mixture contained 50 mM Tris (pH 7.0), 10 mM CaCl2, 100 mM NaCl, 2.8 mM TCEP, 50 μM A101 and 14 mM H-Gly-OMe. The reaction was monitored at 25° C. using a BioTek Synergy 4 plate reader (Ex/Em: 318/413 nm). Enzymatic inhibition assays were run under Kitz and Wilson conditions (Kitz, R. and Wilson, I. B., “Esters of methanesulfonic acid as irreversible inhibitors of acetylcholinesterase.” J. Biol. Chem. 1962, 237, 3245-49), which were established for TG3a and FXIIIa at a substrate (A101) concentration of 50 μM using enzyme concentrations of 0.17 μM and 0.11 μM for TG3a and FXIIIa, respectively.

Plasma stability = assay type: in vitro ADME
[1] = Metabolic stability in human hepatocyte model; assay type: in vitro ADME; settings: hepatocytes; for hepatocyte CLint: calculated intrinsic clearance; for half-life: read-out: Hepatocyte t½
Protocol: The metabolic stabilities of inhibitors 72 and 74 were also evaluated in a human hepatocyte model. The half-lives and calculated intrinsic clearance shown in Table 6 are indicative of moderate stability.

Protein binding = assay type: in vitro ADME
[2] = PAMPA passive diffusion across a lipid membrane; assay type: in vitro ADME
Protocol: Passive diffusion across a lipid membrane was measured by PAMPA for both inhibitors 72 and 74. The values shown in Table 6 indicate both compounds were at least moderately permeant.

MDCK − MDR1 = test: MDCK-MDR1 permeability; assay type: in vitro ADME; settings: for MDCK − MDR1 Papp (A→B): apical to basolateral; for MDCK − MDR1 Papp (B→A): basolateral to apical
SCC-13 cells = test: ECS cell invasion through Matrigel (Transwell); assay type: cell-based; settings: 0-100 μM inhibitor, 18 h, read-out: EC50 for inhibition of ECS invasion
Protocol: One well-known property of tumour-initiating cells associated with cancer metastasis is the enhanced ability to invade Matrigel (collagen). For example, it has been shown that epidermal cancer stem (ECS) cells invade Matrigel more efficiently than non-stem cancer cells, and that these properties are associated with enhanced tumour formation (Adhikary, G. et al., PLoS ONE 2013, 8, e84324. https://doi.org/10.1371/journal.pone.0084324). We have shown previously that ˜20 μM of NC9 and 3.9 μM of VA4 can reduce ECS cell invasion through Matrigel by ˜50% relative to vehicle-treated cells (Akbar, A. et al., J. Med. Chem. 2017, 60, 7910-7927. https://doi.org/10.1021/acs.jmedchem.7b01070; Fisher, M. L. et al., Oncotarget 2015, 6, 20525-20539. https://doi.org/10.18632/oncotarget.3890).
Materials and Methods for cell invasion data. To measure cell invasion, Matrigel (Corning, catalogue no. 354234) was diluted to 250 μg/mL and 120 μL was added to the upper chambers of a Transwell plate (Corning, no. 353097, 1-cm diameter, 8-μm pore size) and allowed to solidify. SCC-13 cells were suspended in spheroid medium (Fisher, M. L. et al., Cancer Res. 2016, 76, 7265-7275. https://doi.org/10.1158/0008-5472.can-16-2032; Adhikary, G. et al., Carcinogenesis 2015, 36, 800-810. https://doi.org/10.1093/carcin/bgv064) containing 1% foetal calf serum (FCS), and 20,000 cells were plated into each upper chamber atop the Matrigel. The bottom chamber contained spheroid medium supplemented with 10% FCS and 0-100 μM of inhibitor. After incubation for 18 h in a 37° C. incubator, cells in the top chamber were removed with a swab and cells on the lower surface of the membrane were fixed with 4% paraformaldehyde and the nuclei were stained with 4′,6-diamidino-2-phenylindole. Cell number was counted in multiple fields (n=4) using a fluorescence microscope, normalized with respect to the number counted in the presence of vehicle only, and expressed as mean±standard deviation.

SMILES | inhibition of FXIIIa (FXIIIa) | Plasma t½ (Plasma stability) | hepatocyte CLint [1] | half-life [1] | Protein Binding (Protein binding) | Protein Binding Recovery (Protein binding) | PAMPA −Log [Pe (cm/s)] [2] | MDCK − MDR1 Papp (A→B) (MDCK − MDR1) | MDCK − MDR1 Papp (B→A) (MDCK − MDR1) | EC50 (SCC-13 cells) | MDCK − MDR1 Efflux Ratio (MDCK − MDR1)
C=CC(=O)NCCCC[C@H](NC(=O)OCc1ccccc1)C(=O)N1CCN(C(=O)c2cccc3ccccc23)CC1 [AA9, reference compound] | none of these inhibitors showed any detectable inhibition |  |  |  |  |  |  |  |  |  | 
C=CC(=O)NCCCC[C@H](NC(=O)Cc1ccccc1F)C(=O)N1CCN(C(=O)c2cccc3ccccc23)CC1 [Inhibitor 72, (S)-N-(6-(4-(1-naphthoyl)piperazin-1-yl)-5-(2-(2-fluorophenyl)acetamido)-6-oxohexyl)acrylamide] | none of these inhibitors showed any detectable inhibition | 17.92 h | 2.37 µL/min/1e6 cells | 9.73 h | 84% | 86% | 5.44 | 0.29 10^−6 cm/s | 18.2 10^−6 cm/s | 77 µM | 
C=CC(=O)NCCCC[C@H](NC(=O)Cc1ccccc1C)C(=O)N1CCN(C(=O)c2cccc3ccccc23)CC1 [Inhibitor 74, (S)-N-(6-(4-(1-naphthoyl)piperazin-1-yl)-5-(2-(2-methylphenyl)acetamido)-6-oxohexyl)acrylamide] | none of these inhibitors showed any detectable inhibition | 9.47 h | 5.58 µL/min/1e6 cells | 4.18 h | 85% | 93% | 5.03 | 0.32 10^−6 cm/s | 16.5 10^−6 cm/s | 119 ± 5 µM | 51.6
